Values quoted from earlier work as cited in patent US12193458B2, “Sweetening composition and preparation method and use thereof” (HUNAN NUTRAMAX INC., priority 2019, dated 2025).

Key:
[1] = component of Rubus suavissimus S. Lee
[2] = pH value of 3 to 12, heated, under light irradiation

Row | Molecule | taste [1] | decomposition when heated in a water solution [2]
1 | C[C@@H]1CC[C@]2(C(=O)O[C@@H]3O[C@H](CO)[C@@H](O)[C@H](O)[C@H]3O)CC[C@]3(C)C(=CC[C@@H]4[C@@]5(C)C[C@@H](O)[C@H](O)[C@@](C)(CO)[C@@H]5CC[C@]43C)[C@@H]2[C@]1(C)O [Nigaichigoside F1] | bitter taste | –
2 | C[C@@]12CCC[C@@](C)(C(=O)O[C@@H]3O[C@H](CO)[C@@H](O)[C@H](O)[C@H]3O)[C@H]1CC[C@@]13C[C@@H](CC[C@H]12)[C@@](O)(CO)C3 [Paniculoside IV] | tasteless | –
3 | C=C1C[C@@]23CC[C@H]4[C@@](C)(CCC[C@@]4(C)C(=O)O[C@@H]4O[C@H](CO)[C@@H](O)[C@H](O)[C@H]4O)[C@@H]2CC[C@]1(O[C@@H]1O[C@H](CO)[C@@H](O)[C@H](O)[C@H]1O)C3 [Rubusoside] | – | will not decompose significantly
4 | C=C1C[C@@]23CC[C@H]4[C@@](C)(CCC[C@@]4(C)C(=O)O)[C@@H]2CC[C@]1(O[C@@H]1O[C@H](CO)[C@@H](O)[C@H](O)[C@H]1O)C3 [Steviolmonoside] | sweet taste | –
5 | CC1(C)C(O)CCC2(C)C3CCC4CC3(CCC12)CC4(O)COC1OC(CO)C(O)C(O)C1O (stereo not shown) [Suavioside A] | sweet taste | –
6 | CC1(C)C(=O)CCC2(C)C3CCC4CC3(CCC12)CC4(O)COC1OC(CO)C(O)C(O)C1O (stereo not shown) [Sugereoside] | bitter taste | –
7 | Suavioside B | sweet taste | –
8 | Suavioside C1 | bitter taste | –
9 | Suavioside D1 | tasteless | –
10 | Suavioside D2 | bitter taste | –
11 | Suavioside E | tasteless | –
12 | Suavioside F | bitter taste | –
13 | Suavioside G | sweet taste | –
14 | Suavioside H | sweet taste | –
15 | Suavioside I | sweet taste | –
16 | Suavioside J | sweet taste | –
